Data published in PubChem BioAssay AID1963441 (Molecular Pharmacology Branch, DTP, NCI, 2024).

Test system: NCI-H1876 complex spheroid growth, % test/control
Assay: Anticancer human tumor NCI-H1876 cell line growth inhibition [Asc];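 also: compound exposure lasted 7 days starting three days after seeding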;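 as to viability, T/C: 100% = DMSO vehicle control wells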
Settings: for IC50: curve of first compound; for viability, T/C: stronger effect = lower value
Procedure, shortened: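 Tumor cells were grown as multicellular spheroids with stromal HUVEC and mesenchymal stem cells and treated singly or in combination. Concentrations fell in half-log steps from the clinical Cmax, or from 10 microM where none was known.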

[1] = second compound 0.00949 µM, first compound 0.0316 µM
[2] = second compound 0.00949 µM, first compound 0.1 µM
[3] = second compound 0.00949 µM, first compound 0.316 µM
[4] = second compound 0.00949 µM, first compound 1 µM
[5] = second compound 0.00949 µM, first compound 3.16 µM
[6] = second compound 0.00949 µM, first compound 10 µM
[7] = second compound 0.03 µM, first compound 0.0316 µM
[8] = second compound 0.03 µM, first compound 0.1 µM
[9] = second compound 0.03 µM, first compound 0.316 µM
[10] = second compound 0.03 µM, first compound 1 µM
[11] = second compound 0.03 µM, first compound 3.16 µM
[12] = second compound 0.03 µM, first compound 10 µM
[13] = second compound 0.0949 µM, first compound 0.0316 µM
[14] = second compound 0.0949 µM, first compound 0.1 µM
[15] = second compound 0.0949 µM, first compound 0.316 µM
[16] = second compound 0.0949 µM, first compound 1 µM
[17] = second compound 0.0949 µM, first compound 3.16 µM
[18] = second compound 0.0949 µM, first compound 10 µM
[19] = second compound 0.3 µM, first compound 0.0316 µM
[20] = second compound 0.3 µM, first compound 0.1 µM
[21] = second compound 0.3 µM, first compound 0.316 µM
[22] = second compound 0.3 µM, first compound 1 µM
[23] = second compound 0.3 µM, first compound 3.16 µM
[24] = second compound 0.3 µM, first compound 10 µM
[25] = second compound 0.949 µM, first compound 0.0316 µM
[26] = second compound 0.949 µM, first compound 0.1 µM
[27] = second compound 0.949 µM, first compound 0.316 µM
[28] = second compound 0.949 µM, first compound 1 µM
[29] = second compound 0.949 µM, first compound 3.16 µM
[30] = second compound 0.949 µM, first compound 10 µM
[31] = second compound 3 µM, first compound 0.0316 µM
[32] = second compound 3 µM, first compound 0.1 µM
[33] = second compound 3 µM, first compound 0.316 µM
[34] = second compound 3 µM, first compound 1 µM
[35] = second compound 3 µM, first compound 3.16 µM
[36] = second compound 3 µM, first compound 10 µM

In the case of `C#Cc1c(F)ccc2cc(O)cc(-c3ncc4c(N5CC6CCC(C5)N6)nc(OCC56CCCN5CC(F)C6)nc4c3F)c12` (stereo not drawn) + CCN1C(C(=O)NC23CCC(C(=O)O)(CC2)CC3)C(c2cccc(Cl)c2F)C2(C(=O)Nc3cc(Cl)ccc32)C12CCCCC2, the IC50 (second compound 0.00949 µM) is reported as over 10 µM, the IC50 (second compound 0.03 µM) is reported as over 10 µM and the IC50 (second compound 0.0949 µM) is reported as over 10 µM. The IC50 (second compound 0.3 µM) was over 10 µM, the IC50 (second compound 0.949 µM) was over 10 µM and the IC50 (second compound 3 µM) was over 10 µM. It also gave a viability, T/C [1] of 89.2%, a viability, T/C [2] of 97.2% and a viability, T/C [3] of 98.5%. For the same compound, the viability, T/C [4] was 95.6%, the viability, T/C [5] was 98.1% and the viability, T/C [6] was 87.1%. It also gave a viability, T/C [7] of 94.8%, a viability, T/C [8] of 106% and a viability, T/C [9] of 98.5%. The viability, T/C [10] was 103%, the viability, T/C [11] was 95.3% and the viability, T/C [12] was 89.8%. The viability, T/C [13] was 101%, the viability, T/C [14] was 112% and the viability, T/C [15] was 102%. The viability, T/C [16] was 97.7%, the viability, T/C [17] was 96.3% and the viability, T/C [18] was 88.4%. For the same compound, the viability, T/C [19] was 105%, the viability, T/C [20] was 106% and the viability, T/C [21] was 114%. It also gave a viability, T/C [22] of 99.8%, a viability, T/C [23] of 96.5% and a viability, T/C [24] of 99.5%. It also gave a viability, T/C [25] of 118%, a viability, T/C [26] of 120% and a viability, T/C [27] of 104%. The viability, T/C [28] was 112%, the viability, T/C [29] was 116% and the viability, T/C [30] was 95%. The viability, T/C [31] was 97.4%, the viability, T/C [32] was 88% and the viability, T/C [33] was 85.2%. For the same compound, the viability, T/C [34] was 96.9%, the viability, T/C [35] was 102% and the viability, T/C [36] was 79.2%.
Compound `C=C(F)C(=O)N1CCN(c2nc(OCC3CCCN3C)nc3c2CCN(c2cccc4cccc(Cl)c24)C3)CC1CC#N` (stereo not drawn) + CCN1C(C(=O)NC23CCC(C(=O)O)(CC2)CC3)C(c2cccc(Cl)c2F)C2(C(=O)Nc3cc(Cl)ccc32)C12CCCCC2 has an IC50 (second compound 0.00949 µM) of 6.65 µM, an IC50 (second compound 0.03 µM) of 6.95 µM and an IC50 (second compound 0.0949 µM) of 6.91 µM. It also gave an IC50 (second compound 0.3 µM) of 6.79 µM, an IC50 (second compound 0.949 µM) of 6.4 µM and an IC50 (second compound 3 µM) of 5.67 µM. It also gave a viability, T/C [1] of 93.6%, a viability, T/C [2] of 102% and a viability, T/C [3] of 102%. It also gave a viability, T/C [4] of 107%, a viability, T/C [5] of 107% and a viability, T/C [6] of 21.5%. It also gave a viability, T/C [7] of 104%, a viability, T/C [8] of 108% and a viability, T/C [9] of 109%. It also gave a viability, T/C [10] of 110%, a viability, T/C [11] of 106% and a viability, T/C [12] of 24%. The viability, T/C [13] was 107%, the viability, T/C [14] was 99.3% and the viability, T/C [15] was 101%. It also gave a viability, T/C [16] of 98.5%, a viability, T/C [17] of 101% and a viability, T/C [18] of 26%. It also gave a viability, T/C [19] of 104%, a viability, T/C [20] of 92.1% and a viability, T/C [21] of 99.3%. The viability, T/C [22] was 110%, the viability, T/C [23] was 111% and the viability, T/C [24] was 22.9%. It also gave a viability, T/C [25] of 111%, a viability, T/C [26] of 107% and a viability, T/C [27] of 108%. For the same compound, the viability, T/C [28] was 116%, the viability, T/C [29] was 109% and the viability, T/C [30] was 12.7%. It also gave a viability, T/C [31] of 109%, a viability, T/C [32] of 109% and a viability, T/C [33] of 110%. For the same compound, the viability, T/C [34] was 112%, the viability, T/C [35] was 93.8% and the viability, T/C [36] was 7.68%.
For `C=CC(=O)N1CCN(c2nc(=O)n(-c3c(C)ccnc3C(C)C)c3nc(-c4c(O)cccc4F)c(F)cc23)C(C)C1` (stereo not drawn) + CCN1C(C(=O)NC23CCC(C(=O)O)(CC2)CC3)C(c2cccc(Cl)c2F)C2(C(=O)Nc3cc(Cl)ccc32)C12CCCCC2, the IC50 (second compound 0.00949 µM) was over 10 µM, the IC50 (second compound 0.03 µM) was over 10 µM and the IC50 (second compound 0.0949 µM) was over 10 µM. For the same compound, the IC50 (second compound 0.3 µM) was over 10 µM, the IC50 (second compound 0.949 µM) was over 10 µM and the IC50 (second compound 3 µM) was over 10 µM. The viability, T/C [1] was 93.5%, the viability, T/C [2] was 90.4% and the viability, T/C [3] was 101%. The viability, T/C [4] was 108%, the viability, T/C [5] was 118% and the viability, T/C [6] was 106%. It also gave a viability, T/C [7] of 98.2%, a viability, T/C [8] of 101% and a viability, T/C [9] of 104%. For the same compound, the viability, T/C [10] was 103%, the viability, T/C [11] was 110% and the viability, T/C [12] was 107%. It also gave a viability, T/C [13] of 96.8%, a viability, T/C [14] of 93.4% and a viability, T/C [15] of 107%. For the same compound, the viability, T/C [16] was 106%, the viability, T/C [17] was 117% and the viability, T/C [18] was 107%. For the same compound, the viability, T/C [19] was 103%, the viability, T/C [20] was 106% and the viability, T/C [21] was 115%. The viability, T/C [22] was 114%, the viability, T/C [23] was 114% and the viability, T/C [24] was 109%. For the same compound, the viability, T/C [25] was 118%, the viability, T/C [26] was 115% and the viability, T/C [27] was 104%. It also gave a viability, T/C [28] of 114%, a viability, T/C [29] of 118% and a viability, T/C [30] of 112%. The viability, T/C [31] was 112%, the viability, T/C [32] was 99.6% and the viability, T/C [33] was 96.7%. The viability, T/C [34] was 109%, the viability, T/C [35] was 114% and the viability, T/C [36] was 107%.
`CNC(C)C(=O)NC1CN(S(=O)(=O)c2cccc(S(=O)(=O)N3CCC4CCC(C(=O)NC(c5ccccc5)c5ccccc5)N4C(=O)C(NC(=O)C(C)NC)C3)c2)CCC2CCC(C(=O)NC(c3ccccc3)c3ccccc3)N2C1=O` (stereo not drawn) + CCN1C(C(=O)NC23CCC(C(=O)O)(CC2)CC3)C(c2cccc(Cl)c2F)C2(C(=O)Nc3cc(Cl)ccc32)C12CCCCC2 was tested, and the IC50 (second compound 0.00949 µM) was over 1 µM, the IC50 (second compound 0.03 µM) was over 1 µM and the IC50 (second compound 0.0949 µM) was over 1 µM. The IC50 (second compound 0.3 µM) was over 1 µM, the IC50 (second compound 0.949 µM) was over 1 µM and the IC50 (second compound 3 µM) was over 1 µM. It also gave a viability, T/C (second compound 0.00949 µM, first compound 0.00316 µM) of 101%, a viability, T/C (second compound 0.00949 µM, first compound 0.01 µM) of 99.6% and a viability, T/C [1] of 101%. The viability, T/C [2] was 100%, the viability, T/C [3] was 116% and the viability, T/C [4] was 102%. For the same compound, the viability, T/C (second compound 0.03 µM, first compound 0.00316 µM) was 103%, the viability, T/C (second compound 0.03 µM, first compound 0.01 µM) was 96.7% and the viability, T/C [7] was 98.8%. For the same compound, the viability, T/C [8] was 98.4%, the viability, T/C [9] was 115% and the viability, T/C [10] was 97%. For the same compound, the viability, T/C (second compound 0.0949 µM, first compound 0.00316 µM) was 111%, the viability, T/C (second compound 0.0949 µM, first compound 0.01 µM) was 104% and the viability, T/C [13] was 106%. It also gave a viability, T/C [14] of 106%, a viability, T/C [15] of 98.5% and a viability, T/C [16] of 110%. It also gave a viability, T/C (second compound 0.3 µM, first compound 0.00316 µM) of 103%, a viability, T/C (second compound 0.3 µM, first compound 0.01 µM) of 108% and a viability, T/C [19] of 108%. For the same compound, the viability, T/C [20] was 108%, the viability, T/C [21] was 118% and the viability, T/C [22] was 103%. It also gave a viability, T/C (second compound 0.949 µM, first compound 0.00316 µM) of 114%, a viability, T/C (second compound 0.949 µM, first compound 0.01 µM) of 119% and a viability, T/C [25] of 106%. The viability, T/C [26] was 119%, the viability, T/C [27] was 115% and the viability, T/C [28] was 112%. It also gave a viability, T/C (second compound 3 µM, first compound 0.00316 µM) of 114%, a viability, T/C (second compound 3 µM, first compound 0.01 µM) of 108% and a viability, T/C [31] of 107%. It also gave a viability, T/C [32] of 99.5%, a viability, T/C [33] of 110% and a viability, T/C [34] of 109%.
